Data as given in US20250034520A1, “INCREASING DEVELOPMENTAL POTENTIAL OF HUMAN PREIMPLANTATION EMBRYOS BY REDUCING GENETIC INSTABILITY, ANEUPLOIDIES AND CHROMOSOMAL MOSAICISM” (THE TRUSTEES OF COLUMBIA UNIVERSITY IN THE CITY OF NEW YORK, priority 2022, published 2025).

Columns and labels:
mouse 2-cell embryos = assay: single-cell sequencing chromosome content analysis, mouse 2-cell embryos; format: cell-based
Experimental: (§1) Embryos, mouse and human, were cultured in Global Total (Life-Global) for the duration of the experiments and with added compounds as outlined below. Incubation in RNA polymerase inhibitors triptolide (1 mM) or alpha amanitin (20 mg/ml) was performed from the 2PN stage (day1) to day3 of human development. Incubation in aphidicolin was performed at 2 mM. […] Mirin was used at a concentration of 50 mM. Olaparib was used to inhibit PARP at a concentration of 10 mM. All experiments were conducted during incubation at 37° C. with 5% CO2 and 19-20% O2. Chemical stock solutions were prepared in DMSO at concentrations at least 1000× higher than the final concentration.
Single cells from blastomeres were collected on the heated stage (Tokai Hit) of an Olympus IX71 inverted microscope equipped with Narishige micromanipulators and a zona pellucida laser (Hamilton-Thorne). Single nuclei were isolated from blastomeres by lysis and dissection of different nuclei using two […] diameter Piezo micropipettes and Holding pipette (Origio). Single embryo cells or nuclei were placed manually in single wells of a 96-well plate containing 9 ml of lysis buffer, prepared as a master mix of 798 ml H2O, 6 ml of 10 mg/mL Proteinase K solution (Sigma-Aldrich), and 96 ml 10× Single Cell Lysis and Fragmentation buffer (Sigma-Aldrich). Single cells/single nuclei were lysed by heating 96-well plates containing single cells/single nuclei at 50° C. for 1 hour, followed by incubation at 99° C. for four minutes using a PCR thermocycler. Single-cell/single-nuclei whole genome amplification (WGA) using degenerate oligo-nucleotide priming PCR (DOP-PCR) was performed using the SEQPLEX Enhanced DNA Amplification Kit (SEQXE, Sigma) according to the manufacturer's instructions. In addition, a modified version of the DOP-PCR protocol that allows inline indexing of WGA DNA was also applied. WGA DNA was subsequently processed for Illumina library sequencing preparation using standard TruSeq indexing methods via the NEBNext Ultra II DNA Library Prep Kit for Illumina (New England Biolabs). NEBNext Multiplex Oligos for Illumina (96 index primers) were used for four amplification cycles. Library DNA was quantified using Qubit dsDNA HS Assay Kit (Invitrogen, Carlsbad, CA, USA) and library size distribution was confirmed using a 2100 Bioanalyzer DNA 1000 Kit (Agilent, Santa Clara, CA, USA). A unimodal curve centered around 300-500 bp was scored as a successful library preparation. Subsequently, 30 mL of each pooled library was sent for sequencing at a concentration of 20 ng/ml. Mutiplex sequencing was performed using Illumina HiSeq 2500 single end indexed run (SR100) while targeting a coverage of approximately 1 million reads per cell/nuclei, sufficient for quantitative genome-wide copy number analysis.
Analysis of DNA sequencing data was performed as previously described (Baslan et al., 2015) with minor modifications as outlined below. Briefly, multiplex sequencing data were demultiplexed according to unique barcodes with reads assigned to their respective single-cell or single-nuclei. Unique reads were aligned to the reference human and mouse genome builds, hg19 and mm9, respectively. Each genome was partitioned into 5000 bins using a previously described algorithm (Varbin) that corrects for genome sequence mappability (Baslan et al., 2012; Navin et al., 2011). Uniquely mapped reads were sorted, indexed and subsequently counted within the partitioned genomic bins. For single-cell copy number inference, read count data were normalized genome-wide followed by CBS segmentation (Olshen et al., 2004) and transformed into integer copy number states using a least-squares fit approach (Baslan et al., 2015).

mouse embryos = assay: mouse preimplantation development and embryo quality; format: cell-based
Experimental: as §1
Mouse oocytes were activated at 1-6 hours post retrieval using 2 mM ionomycin (Sigma Aldrich) in Global Total medium for 5 minutes at 37° C. followed by culture in 10 mM puromycin and 5 mg/ml cytochalasin B for 3 hours, then cytochalasinB only for 2 hours and 10 minutes to prevent second polar body extrusion.
Following the experimental exposures, mouse and human embryos were fixed in 2% paraformaldehyde (PFA) and 0.25% Triton X-100 in PBS for 10 minutes at room temperature, serially washed in phosphate-buffered solution (PBS) at room temperature, then stored in PBS at 4° C. until staining and imaging. Embryos were placed in 10-20 ml droplets of primary antibody solution within plastic tissue culture dishes covered with mineral oil for 1 hour at room temperature, serially washed (×2) in PBS containing 0.01% Triton X-100 to prevent embryos sticking to oil, then transferred to 10-20 ml secondary antibody solution and Hoechst (dilution 1:500) for 30 minutes. Embryos were then serially washed (×2) and placed in 5 ml droplets of PBS with 0.5% serum albumin in uncoated glass bottom dishes (Mattek) covered with embryo culture oil for imaging. The following primary antibodies were used across experiments as described above: Oct-4, γH2AX, RPA32, RPA32 S4/S8, RPA32 S33, 53BP1, RAD51, Centromere, and phospho-CHK1. Phospho-specific antibodies were quality controlled through ATR dependence of foci formation in mouse zygotes, and for γH2AX also in human zygotes. […] The appropriate secondary antibodies conjugated with Alexa Fluor 488, Alexa Fluor 555, CF 568, or Alexa Fluor 647 were diluted at 1:500-1:1000. Ethynyl deoxyuridine (EdU) labeling of zygotes and embryos was performed using the labeling kit (Thermo Fisher Scientific) as described by the manufacturer. 10 mM EdU was added to culture medium for 1 h at the indicated time points, and cells were harvested and fixed thereafter. 5-ethynyl uridine (EU) labeling was performed by incubating day3 cleavage stage embryos for 4 hours in Global total containing 0.2 mM EU.
Embryos were imaged with confocal microscopy using a Zeiss LSM (LSM 710) at a magnification of 63× and the Zeiss Zen software. Images were obtained using 488-, 543- and 633-nm lasers and bright-field microscopy. The number of confocal sections was adjusted to capture the entire nucleus or the entire embryo according to the experimental design as described above. Cell numbers and staining foci numbers were counted manually. Nuclei were identified by the presence of Hoechst33342. Foci were identified if at least 3× greater intensity than nuclear average, spherical in appearance, and overlapping with Hoechst33342 staining. Inner cell masses were identified by the presence of Oct4 within a blastocyst embryo. Active DNA replication was identified by the presence of EdU. DNA damage was identified by the detection of γH2AX and RPA foci within the nucleus. Mechanisms of DNA repair were identified through the detection of RPA S4/S8, RPA S33, Rad51 and 53BP1 foci within the nucleus.

[1] = combined aphidicolin exposure and G2 checkpoint inhibition

## C[C@@]1(CO)[C@H](O)CC[C@@]2(C)[C@H]1CC[C@H]1C[C@@H]3C[C@@]12CC[C@]3(O)CO [aphidicolin]
Mouse 2-cell embryos; aphidicolin-treated
  chromosomal abnormalities per cell: 0.62 per cell
Mouse 2-cell embryos; aphidicolin-treated, controls 98% normal
  blastomeres showing aneuploidy: 33%
Mouse 2-cell embryos; both aphidicolin and G2 checkpoint inhibitor
  aneuploidies per cell: 2.1 per cell
Mouse 2-cell embryos; combination of aphidicolin and G2 checkpoint inhibition
  blastomeres showing aneuploidy: 64.5%
Mouse 2-cell embryos; [1]
  chromosomes with aneuploidies per cell: 2 chromosomes per cell
  euploid mouse 2-cell embryos: 35.5%
Mouse embryos; 48 h post activation, aphidicolin in G2
  micronucleation: increased
Mouse embryos; aphidicolin in G2 phase
  cleaved embryos developed to the blastocyst stage, range: 25%-87%
Mouse embryos; aphidicolin in G2 phase, controls 92%
  cleaved embryos developed to the blastocyst stage: 72%
Mouse embryos; day 5, aphidicolin in G2
  ICM cells marked by Pou5f1: fewer
  total cell number of blastocysts: reduced
